Read-outs that look alike come from different tables or passages of the source.
What was measured:
ob/ob mice = experiment: Plasma glucose, compound in chow, obese mice; format: in vivo, mouse (C57 B1/6J ob/ob)
Method: (§1) The compounds of this invention were tested for hypoglycemic and anti-obesity activity according to the following procedure.
(§2) Obese mice (C57 B1/6J (ob/ob)), and/or diabetic mice (C57 B1/KsJ (db/db)) were obtained from Jackson Laboratories, Bar Harbor, Maine. Obese rats (fa/fa) were obtained from Charles River Laboratories, Wilmington, Mass. Obese mice were 8 weeks of age and diabetic mice were 9 weeks of age at the start of the test. Obese rats were 12-14 weeks of age at the start.
(§3) The test compounds were dissolved in methanol, mixed with powdered Purina rodent chow on a weight of compound to weight of chow basis and thoroughly dried.
(§4) Groups of 6 control mice or rats received vehicle (methanol) treated chow.
[…] Thus, a 40 g mouse, fed the test compound at a concentration of 0.02 percent of the diet, would receive a dose of 20 mg/kg/day if it ate 4 g of chow per day.
(§5) The mice or rats were weighed before the first treatment and once at the end of each indicated treatment period.
(§6) Blood samples were collected before the first treatment and once at the end of each indicated treatment period by retro-orbital puncture using heparinized capillary tubes.
(§7) Plasma was separated by centrifugation in a Beckman microfuge for 5 minutes. Plasma glucose concentrations were determined with the Beckman glucose analyzer which uses a glucose oxidase method.

β3-receptors = molecular target: T1, β3-receptors (Rattus norvegicus, UniProt P26255); experiment: Stimulation of adipocyte lipolysis (β3-effect); format: cell-based
T1 construct: Rat epididymal fat pads were excised and placed in 0.9% saline; from tissue; host or cells: collagenase-isolated adipocytes from rat epididymal fat pads
Method: (§8) β-Adrenergic receptors can be divided into β1, β2 and β3 -subtypes. Activation of β1 -receptors invokes increases in heart rate while activation of β2 -receptors stimulates glycogen breakdown in muscle and thereby prevents glycogen synthesis. Activation of β3 -receptors stimulates lipolysis (the breakdown of adipose tissue triglycerides to glycerol and free fatty acids), and thereby promotes the loss of fat mass.
The β3 -effect of the compounds was determined by their ability to stimulate adipocyte lipolysis. Rat epididymal fat pads were excised and placed in 0.9% saline. Four grams of tissue were transferred to a flask with 20 ml of aerated Krebs-Henseleit bicarbonate (KHB) buffer containing 3% fatty acid-free bovine serum albumin to which 75 mg of crude bacterial collagenase (Worthington) had been added. The tissue was incubated for about 45 minutes at 37° C. with gentle shaking. The cells were then washed three times with two volumes of KHB buffer, filtered through two layers of gauze, and brought to a final volume of 80 ml with KHB buffer. One ml aliquots of the cell suspension were added to plastic test tubes containing the appropriate additions of vehicle or compound. The cells were gassed for 1 minute with 95% O2 -5% CO2, capped, and incubated at 37° C. with continuous shaking for a total of 30 minutes. The reaction was stopped by adding 0.1 ml of 30% perchloric acid and 0.1 ml of chloroform. After centrifugation, 0.5 ml of supernatant was transferred to another test tube and neutralized with 0.04 ml of 3M K2 CO3 -0.5M triethanolamine. The amount-of glycerol generated from the hydrolysis of endogenous triglycerides was determined in a coupled-enzyme spectrophotometric assay. […] The test tubes were incubated for 40 minutes at 37° C. with constant shaking. […] This value was corrected for the amount of NADH generated in the absence of glycerol by incubating another aliquot of the neutralized extract with the same assay mixture but without glycerokinase.

β2-receptors = molecular target: T2, β2-receptors (Mus musculus, UniProt P18762); experiment: Inhibition of insulin-mediated incorporation of 14C-glucose into glycogen in isolated soleus muscle (β2-effect); conditions: for β2 activity: CL1 vs BRL1 (FIG. 1), CL2 vs BRL2 (FIG. 2)
T2 construct: Soleus muscle from mice were dissected; from tissue; host or cells: mouse soleus muscle
Method: as §8
The β2 -effect of the compounds was determined by their ability to inhibit the insulin-mediated incorporation of ^14 C-glucose into glycogen in isolated muscle. Soleus muscle from mice were dissected, tied at each end, and placed in a clamp to maintain tension. The clamped muscle was added to a vial that contained 2 ml of KHB with 1.5% bovine serum albumin, 0.3 mU/ml insulin, 5 mM (U^-14 C) glucose, and the appropriate additions of compound or vehicle. The vial was gassed with 95% O2 -5% CO2, capped, and the tissue incubated for one hour in a rotating water bath at 37° C. The muscle was then removed, rinsed in ice-cold saline, blotted and weighed. It was then added to 1 ml of 30% KOH containing 5 mg/ml of oyster glycogen, boiled for 10 minutes, and 0.4 ml of 2% Na2 SO4 and 3.2 ml of 100% ethanol added. After standing overnight at 4° C., the glycogen was pelleted by centrifugation, washed once with 66% ethanol, and repelleted. The pellet was dissolved in 1 ml of water and the amount of radioactivity present determined by liquid scintillation.

β1-receptors = molecular target: T3, β1-receptors (Cavia porcellus, UniProt H0W3H1); experiment: Effect on heart rate of isolated right atria (β1-effect); parameters: species or system guinea pig; conditions: for β1 activity: CL1 vs BRL1 (FIG. 1), CL2 vs BRL2 (FIG. 2)
T3 construct: from tissue; host or cells: guinea pig right atria
Method: as §8
Selectivity of a compound was determined using the following procedures. The effect on heart rate (β1 -effect) was determined using isolated right atria. […] The right atria were dissected and clamped at one end to a tissue holder and electrode assembly (MRA Corp.) and tied at the other end to a force-displacement transducer (Gould-Statham, Burco). The tissues were maintained at 32° C. in a 50 ml capacity glass chamber (MRA Corp.) preloaded with 0.5 g tension. Heart rate was monitored by a Grass polygragh. […] The increase in heart rate was calculated and considered to be the maximum response for that tissue. The tissues were then washed and allowed to equilibrate for 90 minutes. Cumulative concentration-response curves were then determined for each compound or vehicle. All responses were measured 5 minutes post-exposure.

db/db mice = experiment: Plasma glucose, compound in chow, diabetic mice; format: in vivo, mouse (C57 B1/KsJ db/db); conditions: dose 0.005 % wt of chow
Method: as §1, §2, §3, §4
Groups of 6 test mice were fed ad libitum for up to seven weeks and food consumption was measured daily by weighing the food bins before and after the addition of fresh chow. Thus, a 40 g mouse, fed the test compound at a concentration of 0.02 percent of the diet, would receive a dose of 20 mg/kg/day if it ate 4 g of chow per day.
as §5, §6, §7

[1] = dose 0.002 % wt of chow, week 0 (before treatment)
[2] = dose 0.002 % wt of chow, week 1
[3] = dose 0.005 % wt of chow, week 0 (before treatment)
[4] = dose 0.005 % wt of chow, week 1
[5] = dose 0.02 % wt of chow, week 0 (before treatment)

T3 sequence (H0W3H1 1-470): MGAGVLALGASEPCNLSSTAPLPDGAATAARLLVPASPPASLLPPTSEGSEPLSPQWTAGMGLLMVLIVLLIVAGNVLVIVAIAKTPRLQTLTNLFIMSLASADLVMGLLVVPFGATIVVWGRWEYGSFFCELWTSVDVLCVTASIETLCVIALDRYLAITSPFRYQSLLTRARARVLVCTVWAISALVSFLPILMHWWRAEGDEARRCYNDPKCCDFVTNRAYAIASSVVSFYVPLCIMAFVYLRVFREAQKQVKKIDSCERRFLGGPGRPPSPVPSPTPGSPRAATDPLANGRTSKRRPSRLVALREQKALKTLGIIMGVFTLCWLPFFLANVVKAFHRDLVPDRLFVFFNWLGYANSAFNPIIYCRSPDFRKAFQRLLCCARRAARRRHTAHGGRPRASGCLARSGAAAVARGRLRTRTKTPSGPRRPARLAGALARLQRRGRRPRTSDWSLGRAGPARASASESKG
T1 sequence (P26255 whole entry): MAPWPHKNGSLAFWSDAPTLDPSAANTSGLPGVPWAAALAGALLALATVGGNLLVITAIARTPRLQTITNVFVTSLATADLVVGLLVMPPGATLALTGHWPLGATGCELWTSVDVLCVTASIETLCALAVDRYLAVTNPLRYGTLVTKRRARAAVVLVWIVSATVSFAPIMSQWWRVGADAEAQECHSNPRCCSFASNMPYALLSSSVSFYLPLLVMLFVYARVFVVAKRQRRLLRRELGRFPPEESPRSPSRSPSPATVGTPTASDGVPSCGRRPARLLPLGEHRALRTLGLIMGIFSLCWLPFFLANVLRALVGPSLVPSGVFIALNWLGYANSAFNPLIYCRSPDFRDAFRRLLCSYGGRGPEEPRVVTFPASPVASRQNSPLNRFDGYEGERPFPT
T2 sequence (P18762 whole entry): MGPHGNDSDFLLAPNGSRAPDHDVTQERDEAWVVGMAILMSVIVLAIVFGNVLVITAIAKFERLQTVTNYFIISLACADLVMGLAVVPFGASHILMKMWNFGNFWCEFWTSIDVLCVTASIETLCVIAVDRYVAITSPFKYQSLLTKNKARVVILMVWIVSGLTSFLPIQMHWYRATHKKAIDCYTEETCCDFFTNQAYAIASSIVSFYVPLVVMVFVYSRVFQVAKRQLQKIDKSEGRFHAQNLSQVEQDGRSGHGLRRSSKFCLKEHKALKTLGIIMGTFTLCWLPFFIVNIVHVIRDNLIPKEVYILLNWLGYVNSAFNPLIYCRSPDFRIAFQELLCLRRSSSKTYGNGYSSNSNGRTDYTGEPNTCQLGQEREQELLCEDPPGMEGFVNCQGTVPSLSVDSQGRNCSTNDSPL

C[C@H](Cc1ccc2c(c1)OCO2)NC[C@H](O)c1cccc(Cl)c1 (racemic) [(R*,R*)-(+/-)-alpha-(((2-(1,3-benzodioxol-5-yl)-1-methylethyl)amino)methyl)-3-chlorobenzenemethanol mixture with (R*,S*)-(+/-)alpha-(((2-(1,3-benzodioxol-5-yl)-1-methylethyl)amino)methyl)-3-chlorobenzenemethanol, reference compound]
Plasma Glucose Levels (ob/ob mice; [1]): 226 mg/100 ml
Plasma Glucose Levels (ob/ob mice; [2]): 234 mg/100 ml
Plasma Glucose Levels (ob/ob mice; [3]): 227 mg/100 ml
Plasma Glucose Levels (ob/ob mice; [4]): 175 mg/100 ml
Plasma Glucose Levels (ob/ob mice; [5]): 227 mg/100 ml
Plasma Glucose Levels (ob/ob mice; dose 0.02 % wt of chow, week 1): 149 mg/100 ml

COC(=O)C1(C(=O)OC)Oc2ccc(C[C@@H](C)NC[C@@H](O)c3cccc(Cl)c3)cc2O1 (relative stereo) [(R*,S*)-(+/-)-5(2-((2-(3-chlorophenyl))-2-hydroxyethyl)amino)propyl)-1,3-benzodioxole-2,2-dicarboxylic acid, dimethyl ester]
Plasma Glucose Levels (ob/ob mice; [3]): 218 mg/100 ml
Plasma Glucose Levels (ob/ob mice; dose 0.005 % wt of chow, week 5): 162 mg/100 ml
Plasma Glucose Levels (ob/ob mice; dose 0.005 % wt of chow, week 10): 174 mg/100 ml
Plasma Glucose Levels (ob/ob mice; [5]): 219 mg/100 ml
Plasma Glucose Levels (ob/ob mice; dose 0.02 % wt of chow, week 5): 135 mg/100 ml
Plasma Glucose Levels (ob/ob mice; dose 0.02 % wt of chow, week 10): 153 mg/100 ml

C[C@@H](Cc1ccc2c(c1)OCO2)NC[C@H](O)c1cccc(Cl)c1 (relative stereo) [(R*,S*)-(+/-)-alpha-(((2-(1,3-benzodioxol-5-yl)-1-methylethyl)amino)methyl)-3-chlorobenzenemethanol, reference compound]
Plasma Glucose Levels (ob/ob mice; [1]): 228 mg/100 ml
Plasma Glucose Levels (ob/ob mice; [2]): 204 mg/100 ml
Plasma Glucose Levels (ob/ob mice; [3]): 226 mg/100 ml
Plasma Glucose Levels (ob/ob mice; [4]): 176 mg/100 ml
Plasma Glucose Levels (ob/ob mice; [5]): 229 mg/100 ml
Plasma Glucose Levels (ob/ob mice; dose 0.02 % wt of chow, week 1): 128 mg/100 ml

COC(=O)COc1ccc(C[C@@H](C)NC[C@H](O)c2ccc(Cl)cc2)cc1 (relative stereo) [BRL1, (R*,R*)-(±)-(4-(2-((2-(4-chlorophenyl)-2-hydroxyethyl)amino)propyl)phenoxy)-acetic acid, methyl ester, reference compound]
EC50 (β3-receptors): 13 nM
β3 potency in comparison (β3-receptors; CL1 vs BRL1 (FIG. 1), CL2 vs BRL2 (FIG. 2)): slightly greater β3 potency
Selectivity for Lipolysis over Atria ((EC50 - β1)/(EC50 - β3)) (β3-receptors; ratio EC50 β1 / EC50 β3): 15
Selectivity for Lipolysis over Gly. Syn. ((EC50 - β2)/(EC50 - β3)) (β3-receptors; ratio EC50 β2 / EC50 β3): 9
EC50 (β2-receptors): 120 nM
β2 activity (β2-receptors): more of the undesirable β1 and β2 activities than does CL1
EC50 (β1-receptors): 200 nM
β1 activity (β1-receptors): more of the undesirable β1 and β2 activities than does CL1
Plasma Glucose Levels (db/db mice; week 0 (before treatment)): 440 mg/100 ml
Plasma Glucose Levels (db/db mice; week 1): 138 mg/100 ml
Plasma Glucose Levels (db/db mice; week 2): 132 mg/100 ml
Plasma Glucose Levels (ob/ob mice; dose 0.0001 % wt of chow, week 0 (before treatment)): 231 mg/100 ml
Plasma Glucose Levels (ob/ob mice; dose 0.0001 % wt of chow, week 1): 143 mg/100 ml
Plasma Glucose Levels (ob/ob mice; dose 0.0001 % wt of chow, week 2): 119 mg/100 ml
Plasma Glucose Levels (ob/ob mice; dose 0.0005 % wt of chow, week 0 (before treatment)): 232 mg/100 ml
Plasma Glucose Levels (ob/ob mice; dose 0.0005 % wt of chow, week 1): 140 mg/100 ml
Plasma Glucose Levels (ob/ob mice; dose 0.0005 % wt of chow, week 2): 126 mg/100 ml
Plasma Glucose Levels (ob/ob mice; [3]): 231 mg/100 ml
Plasma Glucose Levels (ob/ob mice; [4]): 137 mg/100 ml
Plasma Glucose Levels (ob/ob mice; dose 0.005 % wt of chow, week 2): 138 mg/100 ml

C[C@H](Cc1ccc(OCC(=O)[O-])cc1)NC[C@H](O)c1cccc(Cl)c1.[Na+] (relative stereo) [BRL2, (R*,R*)(+/-)4-(2-((2-(3-chlorophenyl)-2-hydroxyethyl)amino)propyl)phenoxy-acetic acid, monosodium salt]
EC50 (β2-receptors): 800 nM
β2 activity (β2-receptors): full agonist with measurable activity at 1×10^-7M
EC50 (β1-receptors): 5600 nM
β1 activity (β1-receptors): significant β1 activity

COC(=O)C1(C(=O)OC)Oc2ccc(C[C@@H](C)NC[C@H](O)c3cccc(Cl)c3)cc2O1 (stereo in doubt) [CL5, (R,R)(+/-)5-(2-((2-(3-chlorophenyl)-2-hydroxyethyl)-amino)propyl)-1,3-benzodioxole-2,2-dicarboxylic acid, dimethyl ester hydrobomide]
relative β3 potency of RR over SS form (β3-receptors; RR vs SS enantiomer, lipolysis): 36 fold

COC(=O)C1(C(=O)OC)Oc2ccc(C[C@H](C)NC[C@@H](O)c3cccc(Cl)c3)cc2O1 (stereo in doubt) [CL6, (S,S)(+/-)5-(2-((2-(3-chlorophenyl)-2-hydroxyethyl)-amino)propyl)-1,3-benzodioxole-2,2-dicarboxylic acid, dimethyl ester hydrobomide]
EC50 (β3-receptors; read-out: Lipolysis (β3) (EC50)): 290 nM
